Patent US7776826B2, “Method for fostering bone formation and preservation” (Unigene Laboratories, Inc., priority 2004, dated 2010)

Experiments:
Male Sprague-Dawley rats [1] = test: High resolution radiograms of left and right femurs, Groups A-J; type: in vivo, rat; settings: left femur with bmx, 21 days
Procedure: FIG. 3 (a-e) present high resolution radiograms of, respectively, the left (ablated) and right (non-ablated) femurs of some of the rats described with regard to FIGS. 1 and 2 above. (See discussion below of Tables 1 and 2) The radiographs were taken three weeks (i.e., 21 days) following commencement of treatment. The rats were treated as follows: (a) control (i.e., no surgery); (b) sham (i.e., surgery without marrow ablation); (c) mechanical bone marrow ablation (bmx)+phosphate buffer saline (PBS) administration daily for 21 days; (d) bmx followed by parathyroid hormone (PTH[1-34]-NH2) administered daily for 21 days; and (e) bmx followed by parathyroid hormone (PTH[1-34]-NH2) administered daily for 7 days and then salmon calcitonin given daily from days 7-21. A marking of bmx with regard to a right (non-ablated) femur means that
FIG. 3 presents a set of high resolution radiograms of the entire left and right femurs from rats taken from some of the groups A-J described above. In each of the views shown, the treatment modality is indicated in the lower left corner of the radiogram. The following abbreviations are used: Control=no surgery; Sham=surgery without any bone marrow ablation; BMX=bone marrow ablation; PBS=phosphate buffer saline; PTH=parathyroid hormone (PTH[1-34]-NH2); and CT= salmon calcitonin. […]

Male Sprague-Dawley rats [2] = test: pQCT analysis of left and right femoral shafts at day 21, Groups K-R; type: in vivo, rat
Description: FIG. 10 (a-b) presents high resolution radiograms of the left and right femurs, respectively, from an additional series of experiments on additional groups of male Sprague-Dawley rats (6 rats per group) aged 9 weeks which were sacrificed and tested after 21 days (3 weeks). The various groups were subjected to the following treatment modalities: Group K—control day 0; Group L—control day 21; Group M—bone marrow ablation (bmx) day 0; Group N—sham day 21; Group O— bmx+phosphate buffer saline (PBS) daily for 21 days; Group P—bmx+PTH[1-34]-NH2 daily for 21 days; Group Q—bmx+ parathyroid hormone related peptide (PTHRP) daily for 21 days; and Group R—bmx+rat α-calcitonin gene related peptide (CGRP) daily for 21 days;
FIG. 11 (a-d) are graphical representations of the results of Peripheral Quantitative Computerized Tomography (PQCT) analyses of, respectively, the left (ablated) and right (non-ablated) femoral shafts of the rats from Groups K-R (see description of FIG. 10). FIGS. 11(a) and 11(b) illustrate the trabecular bone density observed in, respectively the left and right femoral shafts at day 21; whereas, FIGS. 11(c) and 11(d) illustrate the total bone density of, respectively, the left and right femoral shafts at the same interval. The meanings of the abbreviations used in FIGS. 11(a-d) are identical to those described above with regard to FIG. 10. […] [+=p value<0.01 vs. sham; *=p value<0.01 vs. bmx+PTH; **=p value<0.01 vs. bmx+PTH; and #=p value<0.05 vs. PBS];
An additional series of experiments was thereafter carried out with additional groups of rats (K-R) in order to (1) measure the effect of additional bone anabolic agents, i.e., other than parathyroid hormone (PTH[1-34]-NH2) and calcitonin, as well as to compare the effect(s) achieved with such parathyroid hormone with those obtained with the use of alternate anabolic agents, including parathyroid hormone related peptide (PTHrP) and calcitonin gene related peptide (CGRP). As in the case of the analyses discussed above with regard to FIGS. 3-9, in the animals tested only the left femur underwent the bone marrow ablation (bmx) procedure, i.e., there was no ablation of the right femur. Thus, as noted above, any views of the right femur in the figures described below indicating bone marrow ablation (bmx) as a treatment modality should be taken to mean that such treatment was applied to the corresponding left femur. Further, as was additionally the case above, the samples described below with regard to FIGS. 10-13 were taken from the femur shafts, rather than the corresponding distal epiphysis as in the case of FIGS. 1 and 2. The figures discussed below depict the results of end-point studies wherein the measurements were taken only at the 21 day end-point.
FIG. 11 (a-d) graphically illustrates, by means of a bar graph, the improvements in trabecular bone density and, to some extent, total bone density, in the left femoral shaft of rats subjected to the treatment modalities described above with regard to FIG. 10 (a-b); that is, control day 0; bmx day 0; control day 21; sham day 21; bmx+PBS on day 21; bmx+PTH on day 21; bmx+PTHrP on day 21; and bmx+CGRP on day 21. Again, this is attributable that (only) the left femur was subjected to the bmx treatment, and thus was the only femur wherein the effects of such bmx treatment overlapped with that of the systemic treatment with the bone anabolic agent. […] In contrast to the values obtained for the left femur, no significant amount of bone was formed in the right femur, notwithstanding whether it is trabecular bone density or total bone density which is being measured. This lack of new bone is, furthermore, attributable to the fact that the right femur had not been subjected to the bone marrow ablation (bmx) treatment.

[3] = ablated femur, day 21, agent daily for 21 days, Groups K-R
[4] = non-ablated femur, day 21, agent daily for 21 days, Groups K-R

PTH[1-34]-NH2
bone growth on radiograms, in words (Male Sprague-Dawley rats [1]): greatest bone growth
Left femoral shaft Total density mean (Male Sprague-Dawley rats [2]; [3]): 1100.2 mg/mL
Left femoral shaft Trabecular density mean (Male Sprague-Dawley rats [2]; [3]): 540.7 mg/mL
trabecular bone density of left femoral shaft, in words (Male Sprague-Dawley rats [2]; bmx, day 21): significantly improved
Right femoral shaft Total density mean (Male Sprague-Dawley rats [2]; [4]): 899.5 mg/mL
Right femoral shaft Trabecular density mean (Male Sprague-Dawley rats [2]; [4]): 128.3 mg/mL
